Experimental data as given in US20230277508A1, “USE OF COMPOUND AS CYP2E1 INHIBITOR” (SHANGHAI LING XI BIOTECHNOLOGY DEVELOPMENT CO., LTD., priority 2020, published 2023).

Columns and labels:
[1] = test system: A549 lung cancer cells / M2 macrophages; assay: Proliferation of A549 cells co-cultivated with M2 macrophages (conditional media, CCK8); type: cell-based, human; conditions: SMI0 50 μmol/L during M2 induction, vs M2 macrophage co-cultivation group, P<0.05
Method: Experimental method: PMA was used at […] to induce the transformation of human monocytic leukemia cells THP-1 into MO macrophages, and then IL-4 and IL-13 were used at 20 ng/mL to induce the transformation of MO macrophages into M2 macrophages. A supernatant was collected to establish a co-cultivation system with an A549 lung cancer cell, thereby simulating a M2-type macrophage microenvironment of lung cancer. In the SMI0 intervention group, SMI0 (50 μmol/L) was added for intervention while interleukin was added for induction. Culture supernatants of the MO macrophages, M2 macrophages, and SMI0 intervention group were collected to prepare conditional media. […] cells/mL, then 100 μL of each of different conditional media was added to each well, and 24 h later, 10 μL of a CCK8 reagent was added to each well; and the cells were further cultivated for 2 h, and an absorbance OD value of each well was determined at 450 nm by a microplate reader. 3 replicates were set for each well, and an average was taken. The proliferation activity was calculated based on the OD value.

HepG2 liver cancer cells = assay: Direct effect on HepG2 liver cancer cells; type: cell-based; conditions: up to 100 μmol/L, 24 h
Method: Experimental method: HepG2 liver cancer cells and H22 liver cancer cells in a logarithmic growth phase each were selected and inoculated into a 96-well plate at a concentration of 1*10^5 cells/mL, and then 100 μL of a basic medium including SMI0 at different concentrations (0 μmol/L, 0.16 μmol/L, 0.8 μmol/L, 4 μmol/L, 20 μmol/L, and 100 μmol/L) was added to each well; and 24 h later, the proliferation activity of HepG2 was determined by a CCK8 method, a migration ability of HepG2 was determined by wound-healing assay, and an apoptosis ability of HepG2 was determined by flow cytometry (FCM).

GL261 cells = assay: Direct effect on GL261 glioma cells in vitro; type: cell-based, murine
Method: Experimental method: GL261 murine glioma cells and U251 human glioma cells in a logarithmic growth phase each were selected and inoculated into a 96-well plate at a concentration of 5*10^5 cells/mL, then 100 μL of a cell suspension was added to each well, and 12 h later, a medium was discarded; 200 μL of a basic medium including SMI0 at different concentrations ([…]) was added to each well, […]; and the cells were further cultivated for 2 h, and an absorbance OD value of each well was determined at 450 nm by a microplate reader. 3 replicates were set for each well, and an average was taken. The proliferation activity was calculated based on the OD value.

CYP2E1 = target: T1, CYP2E1 (Mus musculus, UniProt Q05421); assay: CYP2E1 activity (liver microsome) in in situ transplanted mouse glioma model; type: in vivo; conditions: SMI0 intervention group vs model group, P<0.001
T1 construct: from tissue; host or cells: liver microsomes of treated model mice (calcium precipitation)
T1 sequence (Q05421 whole entry): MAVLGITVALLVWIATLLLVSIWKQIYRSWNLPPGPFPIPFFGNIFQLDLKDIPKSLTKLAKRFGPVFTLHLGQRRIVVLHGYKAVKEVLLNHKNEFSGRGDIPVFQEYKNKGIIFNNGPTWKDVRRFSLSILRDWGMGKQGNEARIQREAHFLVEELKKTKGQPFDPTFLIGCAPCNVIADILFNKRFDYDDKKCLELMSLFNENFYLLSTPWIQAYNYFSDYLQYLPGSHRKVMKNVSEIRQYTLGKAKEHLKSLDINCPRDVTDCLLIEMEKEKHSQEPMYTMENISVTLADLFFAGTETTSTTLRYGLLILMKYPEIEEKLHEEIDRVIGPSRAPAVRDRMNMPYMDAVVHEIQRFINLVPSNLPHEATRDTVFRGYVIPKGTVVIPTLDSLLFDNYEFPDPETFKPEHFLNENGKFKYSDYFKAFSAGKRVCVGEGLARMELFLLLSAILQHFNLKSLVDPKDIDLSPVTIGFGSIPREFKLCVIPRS
Method: Experimental method: A calcium precipitation method was used to prepare a mouse liver microsome, and a Braford method was used to determine a protein concentration in the microsome. An incubation system was prepared with 2×PBS, a CZX solution, and the liver microsome at a final concentration of 0.5 mg/mL, and then pre-incubated at 37° C. for 5 min; NADPH was added to initiate a reaction, and a resulting mixture was incubated at 37° C. for 30 min and then placed on ice to terminate the reaction; and ethyl acetate was added to extract 6-hydroxychlorzoxazone, a resulting mixture was vortexed and centrifuged, and a resulting upper organic phase was collected and blow-dried with nitrogen. A peak area of a CZX metabolite 6-hydroxychlorzoxazone was detected by HPLC under the following conditions: methanol:water=56:44, and detection wavelength: 287 nm. A concentration A C of the metabolite 6-hydroxychlorzoxazone was calculated through substitution into a standard curve; and a reaction rate of conversion of CZX into 6-hydroxychlorzoxazone was calculated according to V(pmol/min/mg)=(ΔC*1000)/(B*T) to evaluate an enzymatic activity of CYP2E1, where B represents a protein concentration of the microsome (mg/mL) and T represents an incubation time (min). A correlation between CYP2E1 activity and tumor size in the mouse glioma model was analyzed.

M2 microglial cells = assay: Inflammatory factor and lipid metabolism gene levels in co-cultivated glial cells (qPCR); type: cell-based, mouse; conditions: SMI0 50 μmol/L vs M2 microglial cell co-cultivation group
Method: Experimental method: 10 1-2 d newborn C57BL/6 WT mice and 6 CYP2E1^−/− mice were taken, primary microglial cells and astrocytes were collected and inoculated into 6-well plates, and 24 h later, culture supernatants were taken and co-cultivated with glioma cells. Experimental groups: control group; M2 model group; high-concentration, medium-concentration, and low-concentration SMI0 (50 μmol/L, 12.5 μmol/L, and 3.1 μmol/L) groups; and CYP2E1 gene-knockout group. 24 h later, supernatants were discarded; and […] and IL-13 each were added at 20 ng/mL to induce the transformation of microglial cells into the M2 type in the M2 model group and the high-concentration, medium-concentration, and low-concentration SMI0 groups, and different concentrations of SMI0 (50 μmol/L, 12.5 μmol/L, and 3.1 μmol/L) were also added in the intervention groups. The proliferation of glioma cells was determined by a CCK8 method, and an apoptosis proportion was determined by an Annexin V-FITC-PI apoptosis staining kit.
Experimental method: Astrocytes in the co-cultivation group were collected, RNA was extracted and reverse-transcribed into cDNA, and the changes of inflammatory factor and cholesterol metabolism-associated genes were detected by qPCR.

ID-8 cells = assay: In vitro inhibition experiment on ID-8 cells; type: cell-based, murine; conditions: 0 μM to 320 μM, 48 h

With CC(=O)c1scnc1C [SMI0] the “proliferation activity of A549 cells” value [1] was “significantly weakened”, the “effect on the proliferation, migration, and apoptosis of HepG2 liver cancer cells” value (HepG2 liver cancer cells) was “no significant inhibitory effect” and the “inhibitory effect on GL261” value (GL261 cells; 0 μM to 128 μM, 48 h) was “no significant inhibitory effect”. The “effect on the proliferation of GL261 glioma cells” value (GL261 cells; up to 128 μmol/L or 200 μmol/L, CCK8) was “no significant inhibitory effect”, the CYP2E1 activity (CYP2E1) was “significantly reduced” and the “level of IL-4” value (M2 microglial cells) was “significantly reduced”. For the same molecule, the “level of IL-10” value (M2 microglial cells) was “significantly reduced”, the “level of IL-13” value (M2 microglial cells) was “significantly reduced” and the “level of the lipid metabolism-associated gene PPAR-α” value (M2 microglial cells) was “significantly increased”. The “inhibitory effect on ID-8” value (ID-8 cells) was “no significant inhibitory effect”.
